# Measured values taken from patent US8802597B2, “Herbicidal pyrimidines” (E I du Pont de Nemours and Company, priority 2003, dated 2014).
# Legend:
# Test in all cases: Test C pre/postemergence
# Assay type in all cases: in vivo
# Settings in all cases: Preemergence
# [1] = system: crabgrass (Digitaria sanguinalis)
# How it was run: (§1)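 Greenhouse herbicide screen, visual readout. Compound in solvent/surfactant applied preemergence at planting or postemergence to 1- to 4-leaf plants; assessed at 12–14 days on a 0–100 control scale.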
# [2] = system: woolly cupgrass (Eriochloa villosa)
# How it was run: as §1
# [3] = system: pigweed (Amaranthus retroflexus)
# How it was run: as §1
# [4] = system: johnsongrass (Sorghum halepense)
# How it was run: as §1
# [5] = system: bermudagrass (Cynodon dactylon)
# How it was run: as §1
# soybean (Glycine max) = system: soybean (Glycine max)
# How it was run: as §1
# [6] = system: Surinam grass (Brachiaria decumbens)
# How it was run: as §1
# [7] = system: morningglory (Ipomoea coccinea)
# How it was run: as §1
# [8] = system: giant foxtail (Setaria faberii)
# How it was run: as §1
# [9] = system: goosegrass (Eleusine indica)
# How it was run: as §1
# kochia (Kochia scoparia) = system: kochia (Kochia scoparia)
# How it was run: as §1
# [10] = system: common (oilseed) sunflower (Helianthus annuus)
# How it was run: as §1
# [11] = 31 g ai/ha, scale 0 to 100, 0 no effect, 100 complete control
# [12] = 62 g ai/ha, scale 0 to 100, 0 no effect, 100 complete control
compound,measurement,setting,value
COC(=O)Cc1nc(C2CC2)nc(N)c1Br [Compound 13],"Plant response rating, Crabgrass",[1]; [11],0
same,"Plant response rating, Crabgrass",[1]; [12],0
same,"Plant response rating, Crabgrass","[1]; 125 g ai/ha, scale 0 to 100",0
same,"Plant response rating, Crabgrass","[1]; 250 g ai/ha, scale 0 to 100",0
same,"Plant response rating, Cupgrass, Woolly",[2]; [11],0
same,"Plant response rating, Cupgrass, Woolly",[2]; [12],0
same,"Plant response rating, Cupgrass, Woolly","[2]; 125 g ai/ha, scale 0 to 100",0
same,"Plant response rating, Cupgrass, Woolly","[2]; 250 g ai/ha, scale 0 to 100",0
same,"Plant response rating, Pigweed",[3]; [11],50
same,"Plant response rating, Pigweed",[3]; [12],60
same,"Plant response rating, Pigweed","[3]; 125 g ai/ha, scale 0 to 100",85
same,"Plant response rating, Pigweed","[3]; 250 g ai/ha, scale 0 to 100",90
same,"Plant response rating, Johnsongrass",[4]; [11],0
same,"Plant response rating, Johnsongrass",[4]; [12],0
same,"Plant response rating, Johnsongrass","[4]; 125 g ai/ha, scale 0 to 100",5
same,"Plant response rating, Johnsongrass","[4]; 250 g ai/ha, scale 0 to 100",45
same,"Plant response rating, Bermudagrass",[5]; [11],0
same,"Plant response rating, Bermudagrass",[5]; [12],0
same,"Plant response rating, Bermudagrass","[5]; 125 g ai/ha, scale 0 to 100",0
same,"Plant response rating, Bermudagrass","[5]; 250 g ai/ha, scale 0 to 100",0
same,"Plant response rating, Soybean",soybean (Glycine max); [11],0
same,"Plant response rating, Soybean",soybean (Glycine max); [12],60
same,"Plant response rating, Soybean","soybean (Glycine max); 125 g ai/ha, scale 0 to 100",90
same,"Plant response rating, Soybean","soybean (Glycine max); 250 g ai/ha, scale 0 to 100",90
same,"Plant response rating, Surinam Grass",[6]; [11],0
same,"Plant response rating, Surinam Grass",[6]; [12],0
same,"Plant response rating, Surinam Grass","[6]; 125 g ai/ha, scale 0 to 100",0
same,"Plant response rating, Surinam Grass","[6]; 250 g ai/ha, scale 0 to 100",10
same,"Plant response rating, Morningglory",[7]; [11],60
same,"Plant response rating, Morningglory",[7]; [12],65
same,"Plant response rating, Morningglory","[7]; 125 g ai/ha, scale 0 to 100",85
same,"Plant response rating, Morningglory","[7]; 250 g ai/ha, scale 0 to 100",90
same,"Plant response rating, Foxtail, Giant",[8]; [11],0
same,"Plant response rating, Foxtail, Giant",[8]; [12],0
same,"Plant response rating, Foxtail, Giant","[8]; 125 g ai/ha, scale 0 to 100",0
same,"Plant response rating, Foxtail, Giant","[8]; 250 g ai/ha, scale 0 to 100",5
same,"Plant response rating, Goosegrass",[9]; [11],0
same,"Plant response rating, Goosegrass",[9]; [12],0
same,"Plant response rating, Goosegrass","[9]; 125 g ai/ha, scale 0 to 100",0
same,"Plant response rating, Goosegrass","[9]; 250 g ai/ha, scale 0 to 100",0
same,"Plant response rating, Kochia",kochia (Kochia scoparia); [11],45
same,"Plant response rating, Kochia",kochia (Kochia scoparia); [12],60
same,"Plant response rating, Kochia","kochia (Kochia scoparia); 125 g ai/ha, scale 0 to 100",80
same,"Plant response rating, Kochia","kochia (Kochia scoparia); 250 g ai/ha, scale 0 to 100",85
same,"Plant response rating, Sunflower",[10]; [11],5
same,"Plant response rating, Sunflower",[10]; [12],50
same,"Plant response rating, Sunflower","[10]; 125 g ai/ha, scale 0 to 100",60
same,"Plant response rating, Sunflower","[10]; 250 g ai/ha, scale 0 to 100",90
CCOC(=O)C(Cl)c1nc(C2CC2)nc(N)c1Br (stereo not drawn) [Compound 31],"Plant response rating, Crabgrass",[1]; [11],0
same,"Plant response rating, Crabgrass",[1]; [12],0
same,"Plant response rating, Crabgrass","[1]; 125 g ai/ha, scale 0 to 100",0
same,"Plant response rating, Crabgrass","[1]; 250 g ai/ha, scale 0 to 100",0
same,"Plant response rating, Cupgrass, Woolly",[2]; [11],0
same,"Plant response rating, Cupgrass, Woolly",[2]; [12],0
same,"Plant response rating, Cupgrass, Woolly","[2]; 125 g ai/ha, scale 0 to 100",0
same,"Plant response rating, Cupgrass, Woolly","[2]; 250 g ai/ha, scale 0 to 100",0
same,"Plant response rating, Pigweed",[3]; [11],10
same,"Plant response rating, Pigweed",[3]; [12],30
same,"Plant response rating, Pigweed","[3]; 125 g ai/ha, scale 0 to 100",35
same,"Plant response rating, Pigweed","[3]; 250 g ai/ha, scale 0 to 100",40
same,"Plant response rating, Johnsongrass",[4]; [11],0
same,"Plant response rating, Johnsongrass",[4]; [12],0
same,"Plant response rating, Johnsongrass","[4]; 125 g ai/ha, scale 0 to 100",0
same,"Plant response rating, Johnsongrass","[4]; 250 g ai/ha, scale 0 to 100",5
same,"Plant response rating, Bermudagrass",[5]; [11],0
same,"Plant response rating, Bermudagrass",[5]; [12],0
same,"Plant response rating, Bermudagrass","[5]; 125 g ai/ha, scale 0 to 100",0
same,"Plant response rating, Bermudagrass","[5]; 250 g ai/ha, scale 0 to 100",0
same,"Plant response rating, Soybean",soybean (Glycine max); [11],0
same,"Plant response rating, Soybean",soybean (Glycine max); [12],5
same,"Plant response rating, Soybean","soybean (Glycine max); 125 g ai/ha, scale 0 to 100",15
same,"Plant response rating, Soybean","soybean (Glycine max); 250 g ai/ha, scale 0 to 100",80
same,"Plant response rating, Surinam Grass",[6]; [11],0
same,"Plant response rating, Surinam Grass",[6]; [12],0
same,"Plant response rating, Surinam Grass","[6]; 125 g ai/ha, scale 0 to 100",0
same,"Plant response rating, Surinam Grass","[6]; 250 g ai/ha, scale 0 to 100",0
same,"Plant response rating, Morningglory",[7]; [11],0
same,"Plant response rating, Morningglory",[7]; [12],0
same,"Plant response rating, Morningglory","[7]; 125 g ai/ha, scale 0 to 100",10
same,"Plant response rating, Morningglory","[7]; 250 g ai/ha, scale 0 to 100",50
same,"Plant response rating, Foxtail, Giant",[8]; [11],0
same,"Plant response rating, Foxtail, Giant",[8]; [12],0
same,"Plant response rating, Foxtail, Giant","[8]; 125 g ai/ha, scale 0 to 100",0
same,"Plant response rating, Foxtail, Giant","[8]; 250 g ai/ha, scale 0 to 100",0
same,"Plant response rating, Goosegrass",[9]; [11],0
same,"Plant response rating, Goosegrass",[9]; [12],0
same,"Plant response rating, Goosegrass","[9]; 125 g ai/ha, scale 0 to 100",0
same,"Plant response rating, Goosegrass","[9]; 250 g ai/ha, scale 0 to 100",20
same,"Plant response rating, Kochia",kochia (Kochia scoparia); [11],0
same,"Plant response rating, Kochia",kochia (Kochia scoparia); [12],0
same,"Plant response rating, Kochia","kochia (Kochia scoparia); 125 g ai/ha, scale 0 to 100",50
same,"Plant response rating, Kochia","kochia (Kochia scoparia); 250 g ai/ha, scale 0 to 100",70
same,"Plant response rating, Sunflower",[10]; [11],0
same,"Plant response rating, Sunflower",[10]; [12],0
same,"Plant response rating, Sunflower","[10]; 125 g ai/ha, scale 0 to 100",5
same,"Plant response rating, Sunflower","[10]; 250 g ai/ha, scale 0 to 100",70
